# Measurements from ChEMBL document CHEMBL1122010 (J Med Chem, 1982).
# Experiments:
# L1210 [1] = test: Ki value was measured as influx in L1210 cell membrane transport.; format: functional, cell-based, Mus musculus
# L1210 [2] = test: Percent increase in life span was measured against L1210 murine leukemia cells at the dose of 100 mg/kg; format: functional; settings: Mus musculus
# HEp-2 = test: Effective dose against H.Ep.-2 cells; format: functional; settings: Homo sapiens, read-out: ED50 (the source's name)
# Dihydrofolate reductase = biological target: T1, Dihydrofolate reductase (Mus musculus, UniProt P00375); test: Inhibition of Dihydrofolate reductase in mouse L1210 cells; format: cell-based
# T1 sequence (P00375 whole entry): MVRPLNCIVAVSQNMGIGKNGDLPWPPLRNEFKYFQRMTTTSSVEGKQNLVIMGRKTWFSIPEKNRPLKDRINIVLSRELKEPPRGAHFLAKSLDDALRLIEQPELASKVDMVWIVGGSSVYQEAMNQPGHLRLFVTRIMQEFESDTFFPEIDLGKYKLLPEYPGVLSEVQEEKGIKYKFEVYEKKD
# L1210 [3] = test: Km value was measured as influx in L1210 cell membrane transport.; format: functional, cell-based; settings: Mus musculus
# [4] = The compound was compared with MTX with respect to cytotoxicity toward H.Ep.-2 cells.; format: functional
# L1210 [5] = test: k value was measured as efflux in L1210 cell membrane transport.; format: functional, Mus musculus
# L1210 [6] = test: Percent increase in life span was measured against L1210 murine leukemia cells at the dose of 50 mg/kg; format: functional; settings: Mus musculus
# L1210 [7] = test: Percent increase in life span was measured against L1210 murine leukemia cells at the dose of 1.3 mg/kg; format: functional; settings: Mus musculus
# L1210 [8] = test: Percent increase in life span was measured against L1210 murine leukemia cells at the dose of 25 mg/kg; format: functional; settings: Mus musculus
# L1210 [9] = test: Percent increase in life span was measured against L1210 murine leukemia cells at the dose of 5 mg/kg; format: functional; settings: Mus musculus
# L1210 [10] = test: Percent increase in life span was measured against L1210 murine leukemia cells at the dose of 180 mg/kg; format: functional; settings: Mus musculus
# L1210 [11] = test: Percent increase in life span was measured against L1210 murine leukemia cells at the dose of 2.5 mg/kg; format: functional; settings: Mus musculus
# L1210 [12] = test: Percent increase in life span was measured against L1210 murine leukemia cells at the dose of 200 mg/kg; format: functional; settings: Mus musculus
SMILES,Ki (L1210 [1]) [nM],ILS at 100 mg/kg (L1210 [2]) [%],EC50 (HEp-2) [nM],Ki (Dihydrofolate reductase) [nM],Km (L1210 [3]) [µM],MTX ratio [4],k (L1210 [5]) [min⁻¹],ILS at 50 mg/kg (L1210 [6]) [%],ILS at 1.3 mg/kg (L1210 [7]) [%],ILS at 25 mg/kg (L1210 [8]) [%],ILS at 5 mg/kg (L1210 [9]) [%],ILS at 180 mg/kg (L1210 [10]) [%],ILS at 2.5 mg/kg (L1210 [11]) [%],ILS at 200 mg/kg (L1210 [12]) [%]
CN(Cc1cnc2nc(N)nc(N)c2n1)c1ccc(C(=O)NC(CCC(=O)NCc2ccccc2)C(=O)O)cc1 (stereo not drawn),3800,33,210,0.0036,3.6,88,0.19,,,,,,,
CN(C)C(=O)CCC(NC(=O)c1ccc(N(C)Cc2cnc3nc(N)nc(N)c3n2)cc1)C(=O)O (stereo not drawn),,,59,0.0039,48.4,25,0.26,44,,,,,,
CN(Cc1cnc2nc(N)nc(N)c2n1)c1ccc(C(=O)N[C@@H](CCC(=O)O)C(=O)O)cc1 [METHOTREXATE],3500,,,,3.3,,0.23,,48,,,,,
CN(Cc1cnc2nc(N)nc(N)c2n1)c1ccc(C(=O)NC(CCC(=O)O)C(=O)N[C@@H](CCC(=O)O)C(=O)O)cc1 (stereo partly drawn),61000,,180,170,,75,,,,67,,,,
CNC(=O)CCC(NC(=O)c1ccc(N(C)Cc2cnc3nc(N)nc(N)c3n2)cc1)C(=O)O (stereo not drawn),,58,27,0.0027,27.6,11,0.21,,,,,,,
CN(Cc1cnc2nc(N)nc(N)c2n1)c1ccc(C(=O)NC(CCC(=O)NCC(=O)O)C(=O)O)cc1 (stereo not drawn),,,5.9,0.0029,3.9,2.5,2.1,,,,74,,,
CN(Cc1cnc2nc(N)nc(N)c2n1)c1ccc(C(=O)NC(CCC(N)=O)C(=O)O)cc1 (stereo not drawn),8400,,28,0.0027,9.4,12,0.15,,,,,58,,
CN(Cc1cnc2nc(N)nc(N)c2n1)c1ccc(C(=O)NC(CCC(=O)O)C(=O)NCC(=O)O)cc1 (stereo not drawn),66600,,590,208,,370,,41,,,,,,
CN(Cc1cnc2nc(N)nc(N)c2n1)c1ccc(C(=O)NC(CCC(=O)N[C@@H](CC(=O)O)C(=O)O)C(=O)O)cc1 (stereo partly drawn),,,330,0.0028,> 300,140,,,,,65,,,
CN(Cc1cnc2nc(N)nc(N)c2n1)c1ccc(C(=O)NC(CCC(=O)O)C(=O)N[C@@H](CC(=O)O)C(=O)O)cc1 (stereo partly drawn),146000,,520,208,,217,,,,47,,,,
CN(Cc1cnc2nc(N)nc(N)c2n1)c1ccc(C(=O)NC(CCC(=O)O)C(N)=O)cc1 (stereo not drawn),,,610,460,,250,,,,34,,,,
CN(Cc1cnc2nc(N)nc(N)c2n1)c1ccc(C(=O)NC(CCC(=O)N[C@@H](CCC(=O)O)C(=O)O)C(=O)O)cc1 (stereo partly drawn),,,5.2,0.0037,49.3,2.2,0.22,,,,,,65,
CCCCCNC(=O)CCC(NC(=O)c1ccc(N(C)Cc2cnc3nc(N)nc(N)c3n2)cc1)C(=O)O (stereo not drawn),16800,,55,0.0035,16.9,23,0.26,,,,,,,55
